Data set [1] can be described thus: Plasma protein binding in rat relative to control. It is filed as ADME, cell-free. The following applies: read-out: PPB (converted).
Data set [2] in a line: Half life in cynomolgus monkey at 1 mg/kg, iv measured upto 24 hrs by LC-MS/MS analysis. The data set is classed as ADME, organism-based, Macaca fascicularis. The following applies: in vivo.
Data set [3] can be described thus: Half life in CD-1 mouse at 1 mg/kg, iv measured upto 24 hrs by LC-MS/MS analysis. It is filed as ADME, organism-based. The note with it: in vivo.
A short description of data set [4]: Plasma protein binding in cynomolgus monkey relative to control. The data set is classed as ADME, cell-free, Macaca fascicularis. The note with it: read-out: PPB (converted).
Data set [5] in a line: Half life in Sprague-Dawley rat at 1 mg/kg, iv measured upto 24 hrs by LC-MS/MS analysis. The data set is classed as ADME, organism-based. The note with it: in vivo.
The nature of data set [6]: Volume of distribution at steady state in cynomolgus monkey at 1 mg/kg, po or 1 mg/kg, iv measured upto 24 hrs by LC-MS/MS analysis. The note with it: in vivo. It is filed as ADME, organism-based, Macaca fascicularis.
The nature of data set [7]: Half life in Beagle dog at 1 mg/kg, iv measured upto 24 hrs by LC-MS/MS analysis. The data set is classed as ADME, organism-based, Canis lupus familiaris. The note with it: in vivo.
Data set [8] in a line: Plasma protein binding in dog relative to control. It is filed as ADME, cell-free, Canis lupus familiaris. The note with it: read-out: PPB (converted).
The nature of data set [9]: Oral bioavailability in CD-1 mouse at 1 mg/kg measured upto 24 hrs by LC-MS/MS analysis. The following applies: in vivo. The data set is classed as ADME, organism-based.
Data set [10] can be described thus: Renal toxicity in cynomolgus monkey upto 500 mg/kg/day measured for 14 days. The data set is classed as organism-based, Macaca fascicularis. The note with it: in vivo, 336 h, time 14 day.
Data set [11] is described as follows: Volume of distribution at steady state in Sprague-Dawley rat at 1 mg/kg, po or 1 mg/kg, iv measured upto 24 hrs by LC-MS/MS analysis. It is filed as ADME, organism-based. The note with it: in vivo.
For data set [12], the target named is T1, hERG (KCNH2) (Homo sapiens, UniProt Q12809). As to the kind of experiment: Inhibition of hERG at 10 uM relative to control. It is filed as toxicity.
A short description of data set [13]: Volume of distribution at steady state in CD-1 mouse at 1 mg/kg, po or 1 mg/kg, iv measured upto 24 hrs by LC-MS/MS analysis. It is filed as ADME, organism-based. The note with it: in vivo.
In data set [14] the target is T1, hERG (KCNH2). As to the kind of experiment: Inhibition of hERG at 1 uM relative to control. It is filed as toxicity.
Data set [15] can be described thus: Volume of distribution at steady state in Beagle dog at 1 mg/kg, po or 1 mg/kg, iv measured upto 24 hrs by LC-MS/MS analysis. The data set is classed as ADME, organism-based, Canis lupus familiaris. The following applies: in vivo.
The nature of data set [16]: Apparent permeability across apical to basolateral side in dog MDCK cells. The data set is classed as ADME, cell-based, Canis lupus familiaris.
Data set [17] is described as follows: Oral bioavailability in cynomolgus monkey at 1 mg/kg measured upto 24 hrs by LC-MS/MS analysis. The following applies: in vivo. It is filed as ADME, organism-based, Macaca fascicularis.
A short description of data set [18]: Plasma protein binding in human relative to control. It is filed as ADME, cell-free. The following applies: read-out: PPB (converted).
Data set [19] in a line: Plasma protein binding in mouse relative to control. It is filed as ADME, cell-free. The note with it: read-out: PPB (converted).
The nature of data set [20]: Kinetic solubility of compound. The data set is classed as physicochemical. The following applies: read-out: Kinetic_solubility.
Data set [21] is described as follows: Solubility of compound at pH 1.50 to 7.50 by RP-HPLC analysis. The data set is classed as physicochemical. The following applies: buffer, pH 1.5.
Data set [22] can be described thus: Oral bioavailability in Beagle dog at 1 mg/kg measured upto 24 hrs by LC-MS/MS analysis. It is filed as ADME, organism-based, Canis lupus familiaris. The note with it: in vivo.
Data set [23] in a line: Oral bioavailability in Sprague-Dawley rat at 1 mg/kg measured upto 24 hrs by LC-MS/MS analysis. The data set is classed as ADME, organism-based. The note with it: in vivo.
Data set [24] is described as follows: Renal toxicity in cynomolgus monkey assessed as minimal thymic lymphoid depletion at >= 300 mg/kg/day measured for 14 days. It is filed as organism-based, Macaca fascicularis. The following applies: in vivo, 336 h, time 14 day.
A short description of data set [25]: Hepatic toxicity in cynomolgus monkey upto 500 mg/kg/day measured for 14 days. The note with it: in vivo, 336 h, time 14 day. It is filed as organism-based, Macaca fascicularis.
For another data set, the system named is Rattus norvegicus. As to the kind of experiment: Anti-allodynic activity in MSU-induced Wistar rat gouty arthritis model assessed as mechanical allodynia at 50 mg/kg, iv administered once daily for 7 days and measured on day 2. The note with it: time 7.0 day. The data set is classed as functional, organism-based.
The nature of data set [26]: Renal toxicity in cynomolgus monkey at 100 mg/kg/day for 14 days. The data set is classed as organism-based, Macaca fascicularis. The note with it: in vivo, 336 h, time 14 day.
Data set [27] is described as follows: Renal toxicity in cynomolgus monkey assessed as increase in kidney weight at 100 to 300 mg/kg/day for 14 days. It is filed as organism-based, Macaca fascicularis. The note with it: in vivo, 336 h, dose 100-300 mg/kg/day, time 14 day.
Data set [28] is described as follows: Renal toxicity in cynomolgus monkey assessed as increase in blood urea nitrogen at 100 to 300 mg/kg/day for 14 days. The note with it: in vivo, 336 h, dose 100-300 mg/kg/day, time 14 day. It is filed as organism-based, Macaca fascicularis.
Data set [29] can be described thus: Renal toxicity in cynomolgus monkey assessed as retrograde nephropathy at 100 to 300 mg/kg/day for 14 days. The data set is classed as organism-based, Macaca fascicularis. The following applies: in vivo, 336 h, dose 100-300 mg/kg/day, time 14 day.
Data set [30] can be described thus: Cytotoxicity against human hepatocyte. The data set is classed as toxicity, cell-based. The following applies: hepatocytes.

Data on three molecules can be found in ChEMBL document CHEMBL5214989, “Overcoming Preclinical Safety Obstacles to Discover (S)-N-((1,2,3,5,6,7-Hexahydro-s-indacen-4-yl)carbamoyl)-6-(methylamino)-6,7-dihydro-5H-pyrazolo[5,1-b][1,3]oxazine-3-sulfonamide (GDC-2394): A Potent and Selective NLRP3 Inhibitor” (J Med Chem, 2022).

Broadly, the half-life is the time in which the quantity being followed falls by half. As usually defined, the bioavailability is the share of a dose that reaches the circulation, judged against a reference dose that is usually intravenous. A word on the inhibition: it is the drop in the measured response relative to a control, in per cent. As usually defined, the Papp A→B is how fast a substance crosses the layer from the apical side. One may read the IC50 as the concentration needed to halve the response being measured.

In brackets after ≈: the same amount, converted by molar mass. Activity calls are given as the source filed them. The rule behind the calls is not given here.

T1 sequence (Q12809 whole entry): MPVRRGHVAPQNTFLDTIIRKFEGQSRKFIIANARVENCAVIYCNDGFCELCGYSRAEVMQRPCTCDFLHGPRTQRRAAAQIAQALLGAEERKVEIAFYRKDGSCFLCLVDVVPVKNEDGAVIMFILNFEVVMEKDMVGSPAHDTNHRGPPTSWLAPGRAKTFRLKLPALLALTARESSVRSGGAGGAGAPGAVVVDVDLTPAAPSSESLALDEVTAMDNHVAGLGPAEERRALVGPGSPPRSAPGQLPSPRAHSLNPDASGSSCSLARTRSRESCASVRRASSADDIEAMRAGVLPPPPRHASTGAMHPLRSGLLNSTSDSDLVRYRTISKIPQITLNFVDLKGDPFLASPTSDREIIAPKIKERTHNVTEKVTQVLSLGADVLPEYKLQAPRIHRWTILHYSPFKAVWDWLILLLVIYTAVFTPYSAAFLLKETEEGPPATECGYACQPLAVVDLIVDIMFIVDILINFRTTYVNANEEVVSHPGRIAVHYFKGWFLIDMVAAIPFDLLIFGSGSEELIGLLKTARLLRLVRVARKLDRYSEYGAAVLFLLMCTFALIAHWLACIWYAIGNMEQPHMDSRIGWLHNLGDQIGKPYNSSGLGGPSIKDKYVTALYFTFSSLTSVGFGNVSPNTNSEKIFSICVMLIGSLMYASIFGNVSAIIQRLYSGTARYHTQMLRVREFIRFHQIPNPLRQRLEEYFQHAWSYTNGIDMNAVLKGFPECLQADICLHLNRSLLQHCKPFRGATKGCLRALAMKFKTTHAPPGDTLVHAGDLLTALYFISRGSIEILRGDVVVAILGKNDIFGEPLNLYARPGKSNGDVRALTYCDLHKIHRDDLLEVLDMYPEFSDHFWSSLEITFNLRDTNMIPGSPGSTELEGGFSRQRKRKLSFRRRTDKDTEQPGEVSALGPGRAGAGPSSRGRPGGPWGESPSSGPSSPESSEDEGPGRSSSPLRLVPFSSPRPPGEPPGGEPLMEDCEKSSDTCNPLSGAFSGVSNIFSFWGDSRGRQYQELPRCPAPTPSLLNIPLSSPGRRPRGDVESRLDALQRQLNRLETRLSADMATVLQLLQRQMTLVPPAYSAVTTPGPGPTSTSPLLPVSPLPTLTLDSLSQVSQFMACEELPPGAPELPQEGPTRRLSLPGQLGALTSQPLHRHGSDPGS

On to `CN[C@@H]1COc2c(S(=O)(=O)NC(=O)Nc3c4c(cc5c3CCC5)CCC4)cnn2C1`, for which the fraction unbound in [1] is 0.07; in [4], 0.082; in data set [8], 0.114; in data set [18] it was 0.044; in data set [19], 0.024. For the same molecule, the half-life in data set [2] is 0.89 h; in data set [3], 1.2 h; in data set [5], 4.4 h; in [7] it was 0.99 h. Besides, the Vdss in [6] is 0.18 L/kg; in data set [11] it was 0.29 L/kg; in data set [13], 0.72 L/kg; in [15], 0.67 L/kg. In addition, the bioavailability in data set [9] amounted to 80%; in data set [17], 53%; in data set [22], 78%; in data set [23] it was 33%. Also, the Activity result in data set [10], in data set [24] and in data set [25] was “Non-Toxic” throughout. Besides, on hERG (KCNH2) [12], the inhibition at 10 µM is 0.2%. Moreover, the inhibition at 1 µM on hERG (KCNH2) [14] was -3.1%. For the same molecule, the Papp A→B in data set [16] came out at 0.077 ×10⁻⁶ cm/s. Moreover, the solubility kinetic at 24 h in data set [20] came out at 105 µM (≈ 45.3 µg/mL). Further, the solubility entry in data set [21] is listed as “Soluble”.
As for `C=CC1=C(C(=O)O)N2C(=O)[C@@H](NC(=O)/C(=N\OCOC(=O)C(C)(C)C)c3csc(N)n3)C2SC1` (stereo partly drawn), the result in the data set with Rattus norvegicus was Active.
As for `O=C(Nc1c2c(cc3c1CCC3)CCC2)NS(=O)(=O)c1cnn2c1OCCC2` [JT-001], the fraction unbound is 0.014 in [1]; 0.04 in [4]; 0.045 in data set [8]; 0.014 in data set [18]; 0.009 in data set [19]. For the same molecule, the half-life is 1.4 h in data set [2], 1.9 h in [3], 1.1 h in data set [5] and 2.9 h in [7]. In addition, the Activity entry in data set [26], in data set [27], in [28] and in data set [29] was “Toxic” throughout. In addition, the Vdss was found to be 0.08 L/kg in data set [6], 0.2 L/kg in data set [11], 0.2 L/kg in data set [13] and 0.2 L/kg in data set [15]. Besides, the bioavailability in [9] came to 18%; in data set [17], 17%; in [22], 28%; in data set [23], 30%. The inhibition at 10 µM against hERG (KCNH2) [12] is 9.7%. Moreover, the inhibition at 1 µM against hERG (KCNH2) [14] is 4.1%. The Papp A→B in [16] came out at 1.8 ×10⁻⁶ cm/s. The same molecule registered an IC50 in data set [30] of over 100 µM. Further, the solubility kinetic at 24 h in [20] was 102 µM (≈ 41.1 µg/mL). In [21], the solubility entry is reported as “Soluble”.
